The values below are quoted from earlier work in patent publication US20230165893A1, “TREATMENT OF VIRAL INFECTIONS” (SULFAGENIX, INC., priority 2020, published 2023).

The conditions of this data set: pure elemental sulfur, stated as a contrast, no source given.

Structures are written as SMILES.

For `S1SSSSSSS1` [alpha-elemental sulfur, elemental alpha sulfur], the “solubility in carbon disulfide (in words)” value is given as “completely soluble”.
